According to PubChem BioAssay AID179 (DTP/NCI, 2004):
Where “and” joins values, the source holds several entries; their conditions need not be identical. Identical values can stand only once. Calls of active or inactive are those of the source.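 Rule for the calls: active = compounds giving half or more protection of infected cells from virus-caused growth loss, again on retest; inactive = the rest.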

Test system: CEM cells HIV-1 protection, formazan growth assay
Assay: NCI AIDS Antiviral Assay
Conditions: for IC50: measured here: growth of uninfected CEM cells
Summary of the method: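 Five concentrations of each compound were applied to infected and uninfected human CEM cells. Protection from HIV-1 was judged from growth measured with a soluble formazan assay.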

| Structure (SMILES) | outcome | EC50 [µM] | IC50 |
| --- | --- | --- | --- |
| CN1CC[C@@H](c2ccccc2)[C@@H](O)C1 | inactive |  |  |
| COc1cc2c3c(c1)nc(C)n3C(=O)C(c1ccccc1)S2 (stereo not given) | inactive |  |  |
| CC(C)=CCNc1ncnc2c1ncn2CCC(=O)OC(C)(C)C |  | > 200 | 117 µM |
| CC(O)C1(CNc2cc(Cl)nc(N)n2)CCCC1 (stereo not given) |  | > 200 | 74.1 µM |
| COc1ccc(C[C@@H]2CN(C(=O)c3ccccc3)[C@H](Cc3ccc(O)cc3)CN2C(=O)c2ccccc2)cc1Br |  | > 200 | 126 µM |
| S=C1Cc2c(-c3ccc(Cl)cc3)cc(-c3ccccc3)nc2-c2ccccc2N1 |  | > 200 | 20.9 µM |
| CCOC(=O)c1ccc(N2C(=O)c3cccc4cccc(c34)C2=O)c([N+](=O)[O-])c1 |  | > 100 | 37.2 µM |
| COc1ccc(C(=O)C(CC2C(=O)NC(=O)NC2=O)c2ccc(OC)cc2)cc1 (stereo not given) |  | > 34.7 | > 34.7 µM |
| CCOC1NC(=O)Oc2ccccc21 (stereo not given) | inactive |  |  |
| CC(C)(C)NC1C2CCC(C)(C1O)C2(C)C (stereo not given) |  | > 200 | > 200 µM |
| C/C(=N\N=C(\N)OB(F)F)c1ccccn1 |  | > 200 | 141 µM |
| CCC[n+]1noc(N)n1 |  | > 1510 | > 1510 µM |
| CSc1nc(N)c2c(-c3ccccc3)c3c(nc2n1)CCCC3 |  | > 200 | > 200 µM |
| COC(=O)CC1(C)CCC2(OC(CC(C)=O)C3C(C)(C)CCC[C@@]32C)O1 (stereo not given in full) |  | > 200 | 141 µM |
| COC(OC)C(O)C1OC=CC1n1cnc2c(N)ncnc21 (stereo not given) |  | > 200 | > 200 µM |
| N#C/C(=C\c1ccc2c(c1)OCO2)c1ccccc1 |  | > 200 | 41.7 µM and > 28.8 µM |
| NNC(=O)C(=O)N/N=C(\CCCC(=O)Nc1ccc(Cl)cc1)CC(=O)c1ccc(F)cc1 |  | > 269 | > 269 µM |
| C=CCNC(=O)ON1C(=O)CCC1=O |  | > 1260 | > 1260 µM |
| Cc1cc([N+](=O)[O-])ccc1N=NC(=O)NNc1ccc([N+](=O)[O-])cc1C |  | > 200 | 33.9 µM |
| O=c1[nH]c2nc[nH]c2c(=O)n1C1CCCCC1 |  | > 200 | > 200 µM |
| O=C(NNC1=NCCCCN1)Nc1ccc(Cl)cc1 |  | 107 | > 200 µM |
| O=C(c1ccccc1)N1C2C3CC(OCc4ccccc4)(OCc4ccccc4)C(O3)C21 (stereo not given) |  | > 17 | > 17 µM |
| C=CC/C(C(=O)OC)=C(/C(=O)OC)N(CCC)CCC |  | > 200 | 33.9 µM |

| Structure (SMILES) | outcome | EC50 [µM] | IC50 |
| --- | --- | --- | --- |
| N#CCc1nc(C#N)c(N)o1 |  | 51.3 | > 200 µM |
| CC(=O)OCC1OC(NC(=S)Nc2nc(-c3ccccc3)cc(-c3cc(Cl)ccc3O)n2)C(OC(C)=O)C(OC(C)=O)C1OC(C)=O (stereo not given) |  | > 200 | 5.13 µM |
| O=C(O)c1ccc([C@@H]2C(=O)N(O)[C@@H]3C=CC[C@@H]32)cc1 |  | > 347 | > 347 µM |
| Cc1nc(SCC(N)=O)c2sc(=S)n(-c3ccccc3)c2n1 |  | > 200 | > 200 µM |
| Cc1sc2nc3n(c(=O)c2c1C)N=C(c1ccc(Cl)cc1)CS3 |  | > 200 | > 200 µM |
| O=C1CC(=O)NC(=NN2C(=O)CSC2c2ccc(Cl)cc2)N1 (stereo not given) |  | > 200 | 105 µM |
| c1ccc2c(N3CC3)nncc2c1 |  | > 200 | > 200 µM |
| CCO/C=C/C=C(C(=O)OCC)C(=O)OCC |  | > 148 | > 148 µM |
| O=C(CCc1nnc2s/c(=C\c3ccc([N+](=O)[O-])cc3)c(=O)n12)Nc1ccc(Cl)c(Cl)c1 |  | > 69.2 | 38.9 µM |
| O=C(O)C(Cc1ccc(O)cn1)NC(=O)C(F)(F)F (stereo not given) |  | > 200 | > 200 µM |
| O=c1c2cc3c(=O)n(CCc4ccccc4CO)c(=O)c3cc2c(=O)n1CCc1ccccc1CO |  | > 10.7 | > 10.7 µM |
| Nc1ncnc2c1ncn2CC(=O)NCCCCO |  | > 200 | > 200 µM |
| NC1CC(=O)c2cc(Cl)sc21 (stereo not given) |  | > 200 | > 200 µM |
| CC(C)NC(=O)CNC(=O)c1ccccc1SC(=O)CCCC[n+]1ccccc1 |  | > 0.575 |  |
| O=S1(=O)CC(c2ccccc2)=NN=C(c2ccccc2)C1 |  | > 61.7 | > 61.7 µM |
| CCCCCCNC(=O)/C(=C/C=C/c1ccccc1)NC(=O)c1ccccc1 |  | > 200 | 49 µM |
| CCC(C)[C@H](NC(=O)c1ccccc1S)C(=O)O (stereo not given in full) |  | 8.51 | 110 µM |
| O=C(NC1C=Nc2ccc(Cl)cc2NC1=O)c1ccccc1Cl (stereo not given) |  | > 200 | 123 µM |
| Cn1cc(NC(=O)c2cc(NC(=O)[C@H]3CCC(N)=N3)c[nH]2)cc1C(=O)NCCC(=N)N | active |  |  |
| CCOC(=O)C1Cc2ccc(C)cc2C1=O (stereo not given) |  | > 200 | 110 µM |
| COC1OC2C(CO)OC(n3ncc4c3ncn3cnnc43)C2O1 (stereo not given) |  | > 234 | > 234 µM |
| CC(C)(C)C(=O)OCC1CCC(n2cnc3c(=O)[nH]c(N)nc32)O1 (stereo not given) |  | > 15.5 | > 15.5 µM |
